Laboratory results taken from BindingDB's records for patent US20240132473 (Shanghai Xunhe Pharmaceutical Technology Co., 2024).

Molecular target: T1, Interleukin-1 receptor-associated kinase 4 (Homo sapiens, UniProt Q9NWZ3)
T1 sequence (Q9NWZ3 whole entry): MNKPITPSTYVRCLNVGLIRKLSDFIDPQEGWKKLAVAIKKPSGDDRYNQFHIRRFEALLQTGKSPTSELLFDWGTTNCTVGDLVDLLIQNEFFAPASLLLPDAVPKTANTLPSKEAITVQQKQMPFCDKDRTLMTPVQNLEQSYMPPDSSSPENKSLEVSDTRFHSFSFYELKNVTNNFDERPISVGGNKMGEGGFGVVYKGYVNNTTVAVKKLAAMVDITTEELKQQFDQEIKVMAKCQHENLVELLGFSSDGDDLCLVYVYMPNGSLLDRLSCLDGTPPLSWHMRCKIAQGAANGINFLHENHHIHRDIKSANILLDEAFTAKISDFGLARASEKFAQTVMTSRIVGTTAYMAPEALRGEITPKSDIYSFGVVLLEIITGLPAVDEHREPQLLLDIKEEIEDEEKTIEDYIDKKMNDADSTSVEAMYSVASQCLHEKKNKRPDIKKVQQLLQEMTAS
Assay: IRAK4 Kinase Inhibitory Activity Assay
Protocol: The inhibitory activity (IC50) of the compound on IRAK4 kinase under Km ATP was detected by mobility shift assay (MSA). Ten drug concentration gradients were set (initial concentration 1 μM, 3-fold dilution, 2 duplicate wells per concentration). […] After incubation at 28° C. for a period of time, 10 μL of termination buffer was added to terminate the reaction. The conversion rate data was read with Caliper, and then the conversion rate was converted into inhibition rate data. According to the inhibition rate data of each concentration, the IC50 of half inhibitory concentration was calculated by Logit method (Table 3).

IC50 | SMILES
152 nM | CC(C)(O)c1cc2nn(CCS(C)(=N)=O)cc2cc1NC(=O)c1cccc(C(F)(F)F)n1 (configuration not stated) [US20240132473, Compound MY-004-102]
137 nM | COc1cc2nn(CCS(C)(=N)=O)cc2cc1NC(=O)c1cccc(C(F)(F)F)n1 (configuration not stated) [US20240132473, Compound MY-004-103]
